Measurements published in ChEMBL document CHEMBL3351913, “Malonate-based inhibitors of mammalian serine racemase: kinetic characterization and structure-based computational study” (Eur J Med Chem, 2015).

Target: T1, Serine racemase (Mus musculus, UniProt Q9QZX7)
T1 sequence (Q9QZX7 whole entry): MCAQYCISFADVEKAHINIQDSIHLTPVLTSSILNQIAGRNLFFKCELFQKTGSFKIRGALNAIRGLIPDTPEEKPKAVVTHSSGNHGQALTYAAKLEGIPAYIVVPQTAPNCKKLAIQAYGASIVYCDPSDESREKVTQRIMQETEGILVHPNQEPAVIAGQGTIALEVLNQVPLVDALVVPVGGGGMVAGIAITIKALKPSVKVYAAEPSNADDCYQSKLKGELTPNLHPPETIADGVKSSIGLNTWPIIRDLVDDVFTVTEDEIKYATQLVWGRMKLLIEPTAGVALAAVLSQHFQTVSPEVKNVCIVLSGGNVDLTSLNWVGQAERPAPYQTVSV
Assay: Inhibition of mouse serine racemase using L-serine substrate by reversed-phase HPLC analysis

IC50 [µM]	SMILES
67	O=C(O)CC(=O)O [MALONIC ACID]
5630	CC(C)(C(=O)O)C(=O)O
2160	O=C(O)C(F)(F)C(=O)O
40600	O=C(O)C(CO)(CO)C(=O)O
400	NC(C(=O)O)C(=O)O
94	O=C(O)C(O)C(=O)O
7030	O=C(O)C(C(=O)O)c1ccsc1

SMILES	IC50 [µM]
O=C(O)C(Cl)C(=O)O	780
CC(C(=O)O)C(=O)O [METHYLMALONIC ACID]	1850
O=C(O)C(Cl)(Cl)C(=O)O	57

Target: T1, Serine racemase
Assay: Inhibition of mouse serine racemase by Lineweaver-Burk plot

SMILES	Ki [µM]
O=C(O)CC(=O)O [MALONIC ACID]	27
O=C(O)C(Cl)(Cl)C(=O)O	19
